Experimental data taken from patent US20160324992A1, “IDENTIFICATION AND TREATMENT OF VULNERABLE PLAQUES” (OTTAWA HEART INSTITUTE RESEARCH CORPORATION, priority 2015, published 2016).

Legend:
[1] = system: bone-marrow-derived macrophages (BMDMs); format: cell-based
Procedure: (§1) Bone-marrow derived macrophages. Bone-marrow derived macrophages (BMDMs) were isolated from femurs of adult VVT or Rip3^−/− mice and differentiated into macrophages using DMEM supplemented with 10% FBS and 1% penicillin-streptomycin plus either 20% L929 conditioned media or 20 ng/mL mouse M-CSF for 7-10 days. To polarize macrophages to M1 or M2, BMDMs were incubated on day 7 with 1 μg/mL LPS and 100 ng/mL IFNγ or 10 ng/mL IL-4 respectively for 24 h. Damage Associated Molecular Patterns (DAMPs) were obtained by subjecting BMDMs to 3×30 min freeze-thaw cycle or treatment with 100 ng/mL LPS and 50 μM zVAD.fmk for 24 hours, after which the media was collected and added to naïve cells at indicated ratios.
(§2) Cell viability assays. Cell death was determined by measuring lactate dehydrogenase (LDH) release into the media. Briefly, cells were treated with 100 μg/ml oxLDL in the presence or absence of 25 μM zVAD.fmk or 50 μM necrostatin-1 (Nec-1) for 24 hours and media was collected and centrifuged to pellet cell debris. The amount of LDH in media was measured in a kinetic assay by adding PBS containing 0.02% NADH and 0.03% sodium pyruvate and measuring absorbance at 340 nm for 10 minutes at 1 minute intervals. The slope of the curve provides a measure of cell death, which was expressed as fold change relative to control.
as §1, with “Rip3−/−” for “Rip3^−/−”
as §2, with “ug/ml” for “μg/ml”, “uM” for “μM”

MLKL = assay: Western blot of pMLKL in BMDMs; format: cell-based, mouse
Procedure: Western blot analysis. For western blot analysis of RIP3, cells were lysed in 1.25× sample buffer (83 mM Tris pH 6.8, 6.7% SDS, 13.3% Glycerol, 1.3% β-mercaptoethanol, 0.03% bromophenol blue) and boiled at 100° C. for 5 minutes prior to being subjected to SDS-PAGE and western blot analysis. PVDF membranes were blocked with 5% skim milk, followed by incubation with RIP3 (ProSci Inc, 1:500) or HSP90 (Santa Cruz Biotechnology, 1:1000) antibodies. For analysis of MLKL protein, cells were lysed in ice-cold M2 lysis buffer (50 mM NaF, 20 mM Tris, pH 7.0, 0.5% NP40, 250 mM NaCl, 3 mM EDTA, 3 mM EGTA, supplemented with Roche protease and phosphatase inhibitor cocktails) for 30 mins before centrifugation to pellet insoluble component. Samples were mixed 3:1 with 4× sample loading buffer (Bio-rad) prior to SDS PAGE and western blot analysis. PVDF membranes were blocked in 5% BSA and probed with MLKL (Millipore, 1:500) or GAPDH (Millipore, 1:1000) antibodies. Goat anti-mouse (1:2500) or anti-rabbit (1:5000) or anti-rat (1:2500) IRDye® secondary antibodies (Rockland) were utilized. The protein bands were visualized using Odyssey Infrared Imaging System (LI-COR Biotechnology).

SMILES: CN1C(=O)C(Cc2c[nH]c3ccccc23)NC1=S (centres unmarked) [Nec-1, necrostatin-1]
- cell death with compound alone (in words) [1]: did not promote cell death
- cell death (LDH release), fold change relative to control ([1]; BMDMs, 100 μg/mL oxLDL + 50 μM Nec-1, 24 h, oxLDL alone 3.9±0.6-fold, mean±SEM): 2.3±0.4 fold
- inhibition of oxLDL+zVAD.fmk-induced cell death (in words) ([1]; BMDMs, oxLDL + zVAD.fmk + Nec-1, 24 h): similarly inhibited
- inhibition of oxLDL-induced cell death (in words) ([1]; M2-polarized macrophages, oxLDL 24 h): similarly inhibited
- oxLDL-induced MLKL phosphorylation (in words) (MLKL): dampened
